Measurements reported in US6660768B2, “Parasiticidal compositions and methods of use” (Schering-Plough Animal Health Corporation, priority 2001, dated 2003).

Assays:
[1] = Example 3A: relative solubility of permethrin in neat solvents, seeded solutions in cold bath, supernatant assayed
Procedure: (§1) These solutions were poured into 100 mL tubes with screw top caps. These tubes were placed in the cold water bath and allowed to come to equilibrium at the temperature of the bath. […] The seeded preparations were then thoroughly shaken, replaced in the bath and allowed to remain in the bath for a 24 hour period. The preparations were then examined for crystallization, then again thoroughly agitated and replaced in the bath for an additional time period. Samples of the supernatant were removed after additional crystallization had occurred.
After 24 hours the tubes were examined for the relative amount of crystallization that may have occurred in each of the solutions. Where crystallization had occurred, samples of the supernatant were pulled from the vials and the temperature of the bath was lowered to 15° C.
Samples were again taken for assay from the solutions of hexylene glycol and methyl Carbitol® (diethylene glycol monomethyl ether).

[2] = Example 3B: solubility of permethrin in PM (propylene glycol monomethyl ether), DM (diethylene glycol monomethyl ether) and PM or DPM (dipropylene glycol monomethyl ether)/d-limonene mixtures at low temperatures, seeded
Procedure: as §1
The solvent mixtures tested were: dipropylene glycol monomethyl ether/d-limonene and propylene glycol monomethyl ether/d-limonene.
These solvent mixtures were evaluated at ratios of 2:1, 1:1, 1:2, and then at 8:2 and 9:1 (the first number refers to one of the glycol ethers, the second number refers to d-limonene).

[3] = Diethylene Glycol Monomethyl Ether, Initial
[4] = Dipropylene Glycol Monomethyl Ether, Initial
[5] = Propylene Glycol Monomethyl Ether, Initial

CC1(C)C(C=C(Cl)Cl)C1C(=O)OCc1cccc(Oc2ccccc2)c1 (centres unmarked) [permethrin]
Permethrin ([1]; Diethylene Glycol Monomethyl Ether, 20° C.): 75.02%
Permethrin ([1]; Diethylene Glycol Monomethyl Ether, 25° C.): 74.90%
Cis Isomer [1, 3]: 28.79%
Permethrin [1, 3]: 69.70%
Trans Isomer [1, 3]: 40.91%
Permethrin ([1]; Diethylene Glycol Monomethyl Ether, […] C.): 74.44%
Permethrin ([1]; Dipropylene Glycol Monomethyl Ether, 15° C.): 73.83%
Permethrin ([1]; Dipropylene Glycol Monomethyl Ether, 20° C.): 75.15%
Permethrin ([1]; Dipropylene Glycol Monomethyl Ether, 25° C.): 75.39%
Cis Isomer [1, 4]: 29.41%
Permethrin [1, 4]: 70.35%
Trans Isomer [1, 4]: 40.94%
solubility among the tested solvents ([1]; Examples 3A-3D, low temperatures, order: d-limonene, PM, DPM, diethylene glycol monomethyl ether, hexylene glycol): greatest solubility in d-limonene
Permethrin ([1]; Hexylene Glycol, 25° C.): 75.02%
Cis Isomer ([1]; Hexylene Glycol, Initial): 29.77%
Permethrin ([1]; Hexylene Glycol, Initial): 71.09%
Trans Isomer ([1]; Hexylene Glycol, Initial): 41.32%
Permethrin ([1]; Hexylene Glycol, […] C.): 74.37%
Permethrin ([1]; Propylene Glycol Monomethyl Ether, 15° C.): 74.85%
Permethrin ([1]; Propylene Glycol Monomethyl Ether, 20° C.): 74.84%
Permethrin ([1]; Propylene Glycol Monomethyl Ether, 25° C.): 75.66%
Cis Isomer [1, 5]: 29.55%
Permethrin [1, 5]: 70.78%
Trans Isomer [1, 5]: 40.22%
Permethrin ([1]; d-limonene, 20° C.): 74.84%
Permethrin ([1]; d-limonene, 25° C.): 75.29%
Cis Isomer ([1]; d-limonene, Initial): 29.54%
Permethrin ([1]; d-limonene, Initial): 70.43%
Trans Isomer ([1]; d-limonene, Initial): 40.89%
% Total Permethrin ([2]; 65% permethrin in DPM/d-limonene, 0% d-limonene of solvent mixture, 0° C.): 58.25%
% Total Permethrin ([2]; 65% permethrin in DPM/d-limonene, 0% d-limonene of solvent mixture, 5° C.): 60.53%
% Total Permethrin ([2]; 65% permethrin in DPM/d-limonene, 10% d-limonene of solvent mixture, 10° C.): 61.42%
% Total Permethrin ([2]; 65% permethrin in DPM/d-limonene, 20% d-limonene of solvent mixture, 10° C.): 63.46%
% Total Permethrin ([2]; 65% permethrin in DPM/d-limonene, 33% d-limonene of solvent mixture, 0° C.): 61.65%
% Total Permethrin ([2]; 65% permethrin in DPM/d-limonene, 33% d-limonene of solvent mixture, 5° C.): 63.92%
% Total Permethrin ([2]; 65% permethrin in DPM/d-limonene, 33% d-limonene of solvent mixture, 10° C.): 64.93%
% Total Permethrin ([2]; 65% permethrin in DPM/d-limonene, 50% d-limonene of solvent mixture, 0° C.): 61.55%
% Total Permethrin ([2]; 65% permethrin in DPM/d-limonene, 50% d-limonene of solvent mixture, 5° C.): 64.83%
% Total Permethrin ([2]; 65% permethrin in DPM/d-limonene, 50% d-limonene of solvent mixture, 10° C.): 64.30%
% Total Permethrin ([2]; 65% permethrin in DPM/d-limonene, 67% d-limonene of solvent mixture, 0° C.): 61.33%
% Total Permethrin ([2]; 65% permethrin in DPM/d-limonene, 67% d-limonene of solvent mixture, 5° C.): 65.55%
% Total Permethrin ([2]; 65% permethrin in DPM/d-limonene, 67% d-limonene of solvent mixture, 10° C.): 64.92%
% Total Permethrin ([2]; 65% permethrin in DPM/d-limonene, 100% d-limonene of solvent mixture, 0° C.): 60.27%
% Total Permethrin ([2]; 65% permethrin in DPM/d-limonene, 100% d-limonene of solvent mixture, 5° C.): 62.73%
% Total Permethrin ([2]; 65% permethrin in DPM/d-limonene, 100% d-limonene of solvent mixture, 10° C.): 65.88%
% Total Permethrin ([2]; 65% permethrin in PM/d-limonene, 0% d-limonene of solvent mixture, 0° C.): 52.65%
% Total Permethrin ([2]; 65% permethrin in PM/d-limonene, 0% d-limonene of solvent mixture, 5° C.): 59.51%
% Total Permethrin ([2]; 65% permethrin in PM/d-limonene, 10% d-limonene of solvent mixture, 10° C.): 62.08%
% Total Permethrin ([2]; 65% permethrin in PM/d-limonene, 20% d-limonene of solvent mixture, 10° C.): 64.35%
% Total Permethrin ([2]; 65% permethrin in PM/d-limonene, 33% d-limonene of solvent mixture, 0° C.): 59.42%
% Total Permethrin ([2]; 65% permethrin in PM/d-limonene, 33% d-limonene of solvent mixture, 5° C.): 63.08%
% Total Permethrin ([2]; 65% permethrin in PM/d-limonene, 33% d-limonene of solvent mixture, 10° C.): 63.89%
% Total Permethrin ([2]; 65% permethrin in PM/d-limonene, 50% d-limonene of solvent mixture, 0° C.): 61.74%
% Total Permethrin ([2]; 65% permethrin in PM/d-limonene, 50% d-limonene of solvent mixture, 5° C.): 64.05%
% Total Permethrin ([2]; 65% permethrin in PM/d-limonene, 50% d-limonene of solvent mixture, 10° C.): 64.45%
% Total Permethrin ([2]; 65% permethrin in PM/d-limonene, 67% d-limonene of solvent mixture, 0° C.): 61.45%
% Total Permethrin ([2]; 65% permethrin in PM/d-limonene, 67% d-limonene of solvent mixture, 5° C.): 64.86%
% Total Permethrin ([2]; 65% permethrin in PM/d-limonene, 67% d-limonene of solvent mixture, 10° C.): 65.95%
% Total Permethrin ([2]; 65% permethrin in PM/d-limonene, 100% d-limonene of solvent mixture, 0° C.): 60.27%
% Total Permethrin ([2]; 65% permethrin in PM/d-limonene, 100% d-limonene of solvent mixture, 5° C.): 62.73%
% Total Permethrin ([2]; 65% permethrin in PM/d-limonene, 100% d-limonene of solvent mixture, 10° C.): 65.88%
% Total Permethrin ([2]; 70% permethrin in DPM/d-limonene, 0% d-limonene of solvent mixture, 0° C.): 64.24%
% Total Permethrin ([2]; 70% permethrin in DPM/d-limonene, 0% d-limonene of solvent mixture, 5° C.): 65.56%
% Total Permethrin ([2]; 70% permethrin in DPM/d-limonene, 0% d-limonene of solvent mixture, 10° C.): 66.58%
% Total Permethrin ([2]; 70% permethrin in DPM/d-limonene, 10% d-limonene of solvent mixture, 10° C.): 66.95%
% Total Permethrin ([2]; 70% permethrin in DPM/d-limonene, 20% d-limonene of solvent mixture, 10° C.): 67.71%
% Total Permethrin ([2]; 70% permethrin in DPM/d-limonene, 33% d-limonene of solvent mixture, 5° C.): 69.64%
% Total Permethrin ([2]; 70% permethrin in DPM/d-limonene, 33% d-limonene of solvent mixture, 10° C.): 67.38%
